Measured values from article PMC10743929, “Amphiphilic Sialic Acid Derivatives as Potential Dual-Specific Inhibitors of Influenza Hemagglutinin and Neuraminidase” (International Journal of Molecular Sciences, 2023).
Like-named read-outs stand apart in the source and are kept apart here.

Tests used:
IAV (A/H3N2) = test: CPE reduction assay, influenza A/H3N2 in MDCK cells; assay type: cell-based, influenza A virus A/H3N2 (A/Victoria/361/11 or A/HK/7/87); settings: Influenza A virus, H3N2, 72 h
Method: (§1) The process of CPE reduction assay for the influenza virus was described previously. The virus strains were A/Virginia/ATCC3/2009, A/PR/8 (A/H1N1), A/Victoria/361/11, A/HK/7/87 (A/H3N2), and B/Ned/537/05 (IBV). On day 0, Madin-Darby canine kidney (MDCK) cells in 96-well plates were infected with influenza virus at a multiplicity of infection (MOI) of 0.0004 plaque forming units (PFU) per cell, and that was incubated at 35 °C for 3 days. After the third day, virus-induced CPE and compound cytotoxicity were scored by microscopy, and the data were confirmed by formazan-based MTS cell viability assay (CellTiter 96® AQueous One Solution Cell Proliferation Assay from Promega, Madison, WI, USA). […] Compound cytotoxicity was expressed as the concentration of the compound causing minimal changes in cell morphology (MCC) and 50% cytotoxic concentration (CC50) based on the MTS assay.

[1] = test system: Madin-Darby canine kidney (MDCK) cells; test: Compound cytotoxicity in MDCK cells (microscopy, MTS); settings: microscopically visible alterations in cell morphology
IAV (A/H1N1) = test: CPE reduction assay, influenza A/H1N1 in MDCK cells; assay type: cell-based, influenza A virus A/H1N1 (A/Virginia/ATCC3/2009 or A/PR/8); settings: Influenza A virus, H1N1, 72 h
Method: as §1

IBV = test: CPE reduction assay, influenza B in MDCK cells; assay type: cell-based, influenza B virus (B/Ned/537/05); settings: Influenza B virus, 72 h
Method: as §1

in vitro = settings: dog

**Q.** Which results are given for CC(=O)N[C@H]1[C@H]([C@H](O)[C@H](O)CO)OC(C(=O)O)=C[C@@H]1N=C(N)N [Zanamivir, reference compound]?
**A.** EC50 (IAV (A/H3N2); MTS cell viability assay, day 3, read-out: Antiviral EC50, IAV (A/H3N2), MTS): 1 µM; EC50 (IAV (A/H3N2); microscopic scoring of cytopathic effect, day 3, read-out: Antiviral EC50, IAV (A/H3N2), CPE): 1.6 µM; Cytotoxicity MCC (minimum cytotoxic concentration) [1]: >100 µM; EC50 (IAV (A/H1N1); MTS cell viability assay, day 3, read-out: Antiviral EC50, IAV (A/H1N1), MTS): 8.5 ± 3.4 µM; EC50 (IAV (A/H1N1); microscopic scoring of cytopathic effect, day 3, read-out: Antiviral EC50, IAV (A/H1N1), CPE): 10 ± 3 µM; EC50 (IBV; MTS cell viability assay, day 3, read-out: Antiviral EC50, IBV, MTS): 4.5 µM; EC50 (IBV; microscopic scoring of cytopathic effect, day 3, read-out: Antiviral EC50, IBV, CPE): 2.1 µM; CC50 (in vitro): > 100 µM
